Test results reported in patent US12728099B2, “Formulation to deliver lipophilic active ingredients” (priority 2020, dated 2026).
Values after ≈ are worked out from the molar mass of the structure shown. Like-named read-outs stand apart in the source and are kept apart here.

How the values were obtained:
[1] = Dissolution rate in 1% aqueous sodium cholate solution (HPLC); assay type: physicochemical; conditions: 1% w/v sodium cholate, total 30 μg/mL
Method: Chromatogram recording was performed at 210 nm.

[2] = Particle size by light scattering; assay type: physicochemical
Method: The nanostructured PEA suspension obtained according to Example 1 was analyzed by light scattering to assess the size of the nanoparticles.

[3] = Morphology by scanning electron / optical microscopy; assay type: physicochemical; conditions: SEM or optical microscope
Method: Morphologically, scanning electron microscopy (SEM) analyses of both forms were performed.

[4] = cited from earlier work
[5] = Solubility in different dissolution media (HPLC); conditions: 25 °C, thermodynamic from solid

Dissolved PEA (dissolution rate) ([1]; 30 min): 3.31 ± 2.30 µg/mL
Dissolved PEA (dissolution rate) ([1]; 1 hour): 4.56 ± 1.02 µg/mL
Dissolved PEA (dissolution rate) ([1]; 2 hours): 6.15 ± 1.22 µg/mL
Dissolved PEA (dissolution rate) ([1]; 4 hours): 8.61 ± 0.68 µg/mL
Dissolved PEA (dissolution rate) ([1]; 6 hours): 9.31 ± 0.71 µg/mL
Size (nm ± SD) [2]: Macro and microscopic flakes
solubility at 24 h ([5]; demineralized water, water): < 0.1 µg/mL
solubility at 24 h ([5]; phosphate buffer, pH 7.4, aqueous buffer): 0.64 ± 0.05 µg/mL (≈ 2.14 µM)
solubility at 24 h ([5]; simulated intestinal fluid, pH 6.8, fassgf or other biorelevant): 0.22 ± 0.03 µg/mL (≈ 0.735 µM)
solubility at 24 h ([5]; simulated pulmonary fluid, pH 7.4, fassgf or other biorelevant): 0.8 ± 0.12 µg/mL (≈ 2.67 µM)
Compound: CCCCCCCCCCCCCCCC(=O)NCCO [Raw PEA, Palmitoylethanolamide]
Morphology / obtainment of nanostructures [3]: irregular macroscopic agglomerates (a few tens of microns)
Solubility ([4]; methanol, ethanol, and isopropyl alcohol): poorly soluble
Solubility ([4]; water, oils, and most common organic solvents): practically insoluble
